Results published in patent US20040014672A1, “Novel crystalline form of 6-hydroxy-3-(4-[2-(piperidin-1-yl)ethoxy]phenoxy)-2-(4-methoxyphenyl)benzo[b]thiophene hydrochloride” (priority 2003, published 2004).

Columns and labels:
Assay type in all cases: physicochemical
Aqueous solubility = assay: Aqueous solubility
[1] = Variable temperature X-ray powder diffraction (crystal form stability); settings: up to 125° C., increments of 25° C.
Description: Variable temperature X-ray powder diffraction patterns were obtained on a Siemens D5000 X-ray powder diffractometer which was equipped with a CuKα source (λ=1.54056) operated at 50 kV and 40 mA with a scintillation detector and nickel filter. The powder was packed into a top-loading, recessed temperature controlled holder and a smooth surface was obtained for diffraction. The sample was scanned from 2 to 35° 2θ at 2.5 seconds per step size of 0.04° beginning at 25° C. after an equilibration time of 5 minutes. Subsequent scans were obtained at increasing temperature increments of 25° C. to a maximum of 125° C.

[2] = Moisture sorption/desorption isotherm; settings: over the range of 0-95% RH, 25° C.
From the text: It is most commonly used to study to study desolvation processes and quantatively determine the total volatile content of a solid. DSC is a technique that is often used to screen compounds for polymorphism because the temperatures(s) at which a physical change in a material occurs is usually characteristic of that material. Moisture sorption isotherms provide evaluation of the degree of hydroscopicity associated with a given material and characterization of non-hydrates and hydrates. Lastly, XRD is a technique that detects long-range order in a crystalline material. Moisture Sorption Isotherms were generated using a VTI SGA-100 flow instrument. The samples were analyzed at 25° C. from 0-95% relative humidity (RH) for adsorption and from 95-5% RH for desorption in steps of 5% RH. The adsorption and desorption isotherms were generated as a graph of the % weight change vs. % RH.

higher aqueous solubility relative to F-III (Aqueous solubility): ~10% | change in the diffraction pattern on heating [1]: no significant change | weight increase in moisture sorption/desorption isotherm [2]: 0.11%
SMILES: COc1ccc(-c2sc3cc(O)ccc3c2Oc2ccc(OCCN3CCCCC3)cc2)cc1.Cl [F-V, 6-hydroxy-3-(4-[2-(piperidin-1-yl)ethoxy]phenoxy)-2-(4-methoxyphenyl)benzo[b]thiophene hydrochloride]
